According to patent US10155021B2, “Antimicrobial 4-oxoquinolizines” (Emergent Product Development Gaithersburg Inc., priority 2011, dated 2018):
Converted amounts (≈) assume the structure as drawn. Like-named read-outs stand apart in the source and are kept apart here.

Key:
P. aeruginosa 27853 = test: MIC, standard panel of Gram-positive and Gram-negative bacteria (CLSI); type: cell-based, Pseudomonas aeruginosa; details: Pseudomonas aeruginosa, 27853; CAMHB; read-out: MIC P. aeruginosa 27853
A. baumannii A390 [1] = test: MIC without and with sub-inhibitory polymyxin B (Example 4); type: cell-based, Acinetobacter baumannii; details: for MIC: Acinetobacter baumannii, A390, A. baumannii A390, without polymyxin B, read-out: MIC without PB
A. baumannii A390 [2] = test: MIC determination for Acinetobacter strains (Example 3); type: cell-based; details: LEV R, CIP R, MRP R, IPM I, AMK R, TET I
S. aureus SMITH = test: MIC, panel of quinolone-resistant strains (CLSI); type: cell-based; details: Staphylococcus aureus; CIP R
S. epidermis 12228 = test: MIC, standard panel of Gram-positive and Gram-negative bacteria (CLSI); type: cell-based, Staphylococcus epidermis; details: Staphylococcus, 12228; CAMHB; read-out: MIC S. epidermis 12228
A. baumannii A387 [3] = test: MIC without and with sub-inhibitory polymyxin B (Example 4); type: cell-based, Acinetobacter baumannii; details: for MIC: Acinetobacter baumannii, A387, A. baumannii A387, without polymyxin B, read-out: MIC without PB; for MIC +0.06 μg/ml PB / MIC without PB/MIC + PB: A. baumannii A387; for MIC +0.06 μg/ml PB: +0.06 μg/ml polymyxin B; for MIC without PB/MIC + PB: ratio, PB 0.06 μg/ml
A. baumannii A473 [4] = test: as above; type: cell-based, Acinetobacter baumannii; details: for MIC: Acinetobacter baumannii
E. coli IMP = test: microbe, parasite or virus in culture; details: Escherichia coli, read-out: MIC E. coli IMP
S. aureus 25923 = test: MIC, standard panel of Gram-positive and Gram-negative bacteria (CLSI); type: cell-based, Staphylococcus aureus; details: Staphylococcus aureus, 25923; CAMHB; read-out: MIC S. aureus 25923
A. baumannii A401 = test: MIC without and with sub-inhibitory polymyxin B (Example 4); type: cell-based, Acinetobacter baumannii; details: for MIC: Acinetobacter baumannii, A401, A baumannii A 401, without polymyxin B, read-out: MIC without PB; for MIC +0.06 μg/ml PB: +0.06 μg/ml polymyxin B
B. thailandensis = test: microbe, parasite or virus in culture; type: cell-based, Burkholderia thailandensis; details: Burkholderia thailandensis, read-out: MIC90 B. thailandensis
S. pneumoniae 49619 = test: MIC, panel of quinolone-resistant strains (CLSI); type: cell-based; details: Streptococcus pneumoniae, LEV S
A. Baumanii OXA-51 = test: MIC, panel of quinolone-resistant strains (CLSI); type: cell-based; details: Acinetobacter baumannii; CIP R, ESBL
A. baumannii ATCC 19606 [5] = test: MIC determination for Acinetobacter strains (Example 3); type: cell-based; details: ATCC19606, reference strain
S. pneumoniae 1027 = test: MIC, panel of quinolone-resistant strains (CLSI); type: cell-based; details: Streptococcus pneumoniae, LEV R
[6] = tested on: 11 strains of A. baumannii and one strain of Acinetobacter sp.; test: Preliminary MBC without and with sub-inhibitory polymyxin B, whole panel (Example 4; also strains not listed separately); type: cell-based; details: for MBC: Acinetobacter baumannii, read-out: MBC without PB; for MBC +0.06 μg/ml PB: A. baumannii A14, +0.06 μg/ml polymyxin B; for MBC +[…] PB: A. baumannii NCTC 13301, +[…] polymyxin B
A. baumannii J2 = test: MIC determination for Acinetobacter strains (Example 3); type: cell-based; details: LEV R, CIP R
A. baumannii A489 = test: as above; type: cell-based; details: LEV R, CIP R, MRP R, IMP R, AMK R, TET R
E. coli 25922 = test: MIC, standard panel of Gram-positive and Gram-negative bacteria (CLSI); type: cell-based, Escherichia coli; details: Escherichia coli, 25922; CAMHB; read-out: MIC E. coli 25922
A. baumannii A473 [7] = test: MIC determination for Acinetobacter strains (Example 3); type: cell-based; details: LEV R, CIP R, MRP R, IMP R, AMK R, TET R
A. baumannii A387 [8] = test: Preliminary MBC without and with sub-inhibitory polymyxin B (Example 4); type: cell-based, Acinetobacter baumannii; details: for MBC: Acinetobacter baumannii, A387, A. baumannii A387, without polymyxin B, read-out: MBC without PB; for MBC +0.06 μg/ml PB: A. baumannii A387, +0.06 μg/ml polymyxin B
A. baumannii A387 [9] = test: MIC determination for Acinetobacter strains (Example 3); type: cell-based; details: LEV I, CIP R, IPM R, AMK R, TET R
A. baumannii ATCC 19606 [10] = test: Preliminary MBC without and with sub-inhibitory polymyxin B (Example 4); type: cell-based, Acinetobacter baumannii; details: preliminary MBC; for MBC +0.06 μg/ml PB: A. baumannii ATCC 19606, +0.06 μg/ml polymyxin B; for MBC: Acinetobacter baumannii, ATCC19606, A. baumannii ATCC 19606, without polymyxin B, read-out: MBC without PB
[11] = A473, A. baumannii A473, without polymyxin B, 2nd experiment, visual reading, read-out: MIC without PB
[12] = A. baumannii A14, without polymyxin B, 1st experiment
[13] = A. baumannii A14, without polymyxin B, 2nd experiment
[14] = NCTC13301, A. baumannii NCTC 13301, without polymyxin B, 1st experiment
[15] = NCTC13301, A. baumannii NCTC 13301, without polymyxin B, 2nd experiment
[16] = A473, A. baumannii A473, without polymyxin B, 1st experiment, read-out: MIC without PB

Compound: Cc1c(-c2ccc(N)cc2)ccn2c(=O)c(C(=O)O)cc(C3CC3)c12 [Compound 8, 8-(4-amino-phenyl)-1-cyclopropyl-9-methyl-4-oxo-quinolizine-3-carboxylic acid]
- MIC (P. aeruginosa 27853): 1 µg/mL (≈ 2.99 µM)
- MIC (A. baumannii A390 [1]; 1st experiment): 16 µg/mL (≈ 47.9 µM)
- MIC (A. baumannii A390 [1]; 2nd experiment, visual reading): 16 µg/mL (≈ 47.9 µM)
- MIC (A. baumannii A390 [2]): 16 µg/mL (≈ 47.9 µM)
- MIC (S. aureus SMITH): < 0.03 µg/mL
- MIC (S. epidermis 12228): < 0.008 µg/mL
- MIC (A. baumannii A387 [3]; 2nd experiment, visual reading): 1 µg/mL (≈ 2.99 µM)
- MIC (A. baumannii A473 [4]; [11]): 4 µg/mL (≈ 12 µM)
- MIC (E. coli IMP): < 0.008 µg/mL
- MIC (S. aureus 25923): < 0.008 µg/mL
- MIC (A. baumannii A401; 1st experiment): 32 µg/mL (≈ 95.7 µM)
- MIC90 (B. thailandensis): < 0.024 µg/mL
- MIC (S. pneumoniae 49619): < 0.03 µg/mL
- MIC (A. Baumanii OXA-51): 4 µg/mL (≈ 12 µM)
- MIC (A. baumannii ATCC 19606 [5]): 1 µg/mL (≈ 2.99 µM)
- MIC (S. pneumoniae 1027): 2 µg/mL (≈ 5.98 µM)

Compound: Cc1c(-c2cc(F)c(N)cc2F)ccn2c(=O)c(C(=O)O)cc(C3CC3)c12 [Compound 2, 8-(3,6-difluoro-4-amino-phenyl)-1-cyclopropyl-9-methyl-4-oxo-quinolizine-3-carboxylic acid]
- MIC (P. aeruginosa 27853): 2 µg/mL (≈ 5.4 µM)
- MBC [6, 12]: 16 µg/mL (≈ 43.2 µM)
- MBC [6, 13]: 16 µg/mL (≈ 43.2 µM)
- MBC [6, 14]: 8 µg/mL (≈ 21.6 µM)
- MBC [6, 15]: 32 µg/mL (≈ 86.4 µM)
- MIC (A. baumannii A390 [1]; 1st experiment): 8 µg/mL (≈ 21.6 µM)
- MIC (A. baumannii J2): 4 µg/mL (≈ 10.8 µM)
- MIC (A. baumannii A390 [2]): 8 µg/mL (≈ 21.6 µM)
- MIC (S. aureus SMITH): < 0.03 µg/mL
- MIC (S. epidermis 12228): < 0.008 µg/mL
- MIC (A. baumannii A387 [3]; 1st experiment): 0.5 µg/mL (≈ 1.35 µM)
- MIC (A. baumannii A387 [3]; 2nd experiment, visual reading): 1 µg/mL (≈ 2.7 µM)
- MIC (A. baumannii A473 [4]; [16]): 8 µg/mL (≈ 21.6 µM)
- MIC (A. baumannii A473 [4]; [11]): 4 µg/mL (≈ 10.8 µM)
- MIC (A. baumannii A473 [4]; A473, read-out: MIC +0.06 μg/ml PB, read with alamar blue, A. baumannii A473, +0.06 μg/ml polymyxin B, 2nd experiment, MIC read with alamar blue): 0.125 µg/mL
- MIC (E. coli IMP): < 0.008 µg/mL
- MIC (A. baumannii A489): 2 µg/mL (≈ 5.4 µM)
- MIC (S. aureus 25923): < 0.008 µg/mL
- MIC (E. coli 25922): < 0.03 µg/mL
- MIC (A. baumannii A401; 1st experiment): 4 µg/mL (≈ 10.8 µM)
- MIC (A. baumannii A401; 2nd experiment, visual reading): 4 µg/mL (≈ 10.8 µM)
- MIC (A. baumannii A473 [7]): 8 µg/mL (≈ 21.6 µM)
- MIC90 (B. thailandensis): < 0.048 µg/mL
- MBC (A. baumannii A387 [8]; 2nd experiment): 1 µg/mL (≈ 2.7 µM)
- MIC (S. pneumoniae 49619): < 0.03 µg/mL
- MIC (A. Baumanii OXA-51): 4 µg/mL (≈ 10.8 µM)
- MIC (A. baumannii A387 [9]): 0.5 µg/mL (≈ 1.35 µM)

Compound: C[C@@H](O)[C@H]1C(=O)N2C(C(=O)O)=C(SCCN=CN)C[C@H]12 [Imipenem, reference compound]
- MBC +0.06 μg/ml PB ([6]; 1st experiment): 1 µg/mL
- MBC +0.06 μg/ml PB ([6]; 2nd experiment): 0.5 µg/mL
- MBC +[…] PB ([6]; 1st experiment): 16 µg/mL (≈ 53.4 µM)
- MBC +[…] PB ([6]; 2nd experiment): 0.5 µg/mL (≈ 1.67 µM)
- MBC [6, 12]: 2 µg/mL (≈ 6.68 µM)
- MBC [6, 13]: 1 µg/mL (≈ 3.34 µM)
- MBC [6, 14]: 128 µg/mL (≈ 428 µM)
- MBC [6, 15]: 128 µg/mL (≈ 428 µM)
- MIC +0.06 μg/ml PB (A. baumannii A390 [1]; A. baumannii A390, +0.06 μg/ml polymyxin B, 2nd experiment, visual reading): 4 µg/mL
- MIC without PB/MIC + PB (A. baumannii A390 [1]; A. baumannii A390, ratio, PB 0.06 μg/ml, 2nd experiment): 4
- MIC (A. baumannii A390 [1]; 1st experiment): 16 µg/mL (≈ 53.4 µM)
- MIC (A. baumannii A390 [1]; 2nd experiment, visual reading): 16 µg/mL (≈ 53.4 µM)
- MIC (A. baumannii J2): 4 µg/mL (≈ 13.4 µM)
- MIC (A. baumannii A390 [2]): 16 µg/mL (≈ 53.4 µM)
- MIC +0.06 μg/ml PB (A. baumannii A387 [3]; 1st experiment): 8 µg/mL
- MIC +0.06 μg/ml PB (A. baumannii A387 [3]; 2nd experiment, visual reading): 8 µg/mL
- MIC without PB/MIC + PB (A. baumannii A387 [3]; 1st experiment): 2
- MIC without PB/MIC + PB (A. baumannii A387 [3]; 2nd experiment): 2
- MIC (A. baumannii A387 [3]; 1st experiment): 16 µg/mL (≈ 53.4 µM)
- MIC (A. baumannii A387 [3]; 2nd experiment, visual reading): 16 µg/mL (≈ 53.4 µM)
- MIC +0.06 μg/ml PB (A. baumannii A473 [4]; A. baumannii A473, +0.06 μg/ml polymyxin B, 2nd experiment, visual reading): 4 µg/mL
- MIC without PB/MIC + PB (A. baumannii A473 [4]; A. baumannii A473, ratio, PB 0.06 μg/ml, 2nd experiment): 8
- MIC (A. baumannii A473 [4]; [16]): 32 µg/mL (≈ 107 µM)
- MIC (A. baumannii A473 [4]; [11]): 32 µg/mL (≈ 107 µM)
- MIC (A. baumannii A489): 128 µg/mL (≈ 428 µM)
- MIC +0.06 μg/ml PB (A. baumannii A401; A baumannii A 401, 1st experiment): 8 µg/mL
- MIC +0.06 μg/ml PB (A. baumannii A401; A baumannii A 401, 2nd experiment, visual reading): 4 µg/mL
- MIC ratio without/with polymyxin B (A. baumannii A401; A baumannii A 401, ratio MIC without PB to MIC + PB, PB 0.06 μg/ml, 2nd experiment): 8 µg/mL
- MIC without PB/MIC + PB (A. baumannii A401; A baumannii A 401, ratio, PB 0.06 μg/ml, 1st experiment): 4
- MIC (A. baumannii A401; 1st experiment): 32 µg/mL (≈ 107 µM)
- MIC (A. baumannii A401; 2nd experiment, visual reading): 32 µg/mL (≈ 107 µM)
- MIC (A. baumannii A473 [7]): 32 µg/mL (≈ 107 µM)
- MBC +0.06 μg/ml PB (A. baumannii ATCC 19606 [10]; 2nd experiment): 1 µg/mL
- MBC +0.06 μg/ml PB (A. baumannii ATCC 19606 [10]; 1st experiment): 2 µg/mL
- MBC (A. baumannii ATCC 19606 [10]; 2nd experiment): 4 µg/mL (≈ 13.4 µM)
- MBC (A. baumannii ATCC 19606 [10]; 1st experiment): 2 µg/mL (≈ 6.68 µM)
- MBC +0.06 μg/ml PB (A. baumannii A387 [8]; 1st experiment): 8 µg/mL
- MBC +0.06 μg/ml PB (A. baumannii A387 [8]; 2nd experiment): 8 µg/mL
- MBC (A. baumannii A387 [8]; 1st experiment): 16 µg/mL (≈ 53.4 µM)
- MBC (A. baumannii A387 [8]; 2nd experiment): 16 µg/mL (≈ 53.4 µM)
- MIC (A. baumannii ATCC 19606 [5]): 2 µg/mL (≈ 6.68 µM)
- MIC (A. baumannii A387 [9]): 16 µg/mL (≈ 53.4 µM)
